The CheMixHub ionic liquid set

Experiment: xn = mol fraction of the nth substance listed

CCCCCCCCCC[n+]1ccn(C)c1.F[B-](F)(F)F + CCCCCCCCn1cc[n+](C)c1.[Br-] + O
298.15 K, 101 kPa
Details	electrical conductivity [S/m]
x2 = 0.0007563, x1 = 0.0001261	0.4
x2 = 0.001655, x1 = 0.0002882	0.71
x2 = 0.00196, x1 = 0.0003423	0.81
x2 = 0.002283, x1 = 0.0003963	0.87
x2 = 0.002552, x1 = 0.0004503	0.94
x2 = 0.002857, x1 = 0.0005043	0.99
x2 = 0.003126, x1 = 0.0005583	1.04
x2 = 0.003341, x1 = 0.0005943	1.09
x2 = 0.003645, x1 = 0.0006483	1.14
x2 = 0.003877, x1 = 0.0006843	1.18
x2 = 0.004253, x1 = 0.0007563	1.23
x2 = 0.004574, x1 = 0.0008102	1.28
x2 = 0.004788, x1 = 0.0008462	1.31
x2 = 0.005092, x1 = 0.0009002	1.35
x2 = 0.005359, x1 = 0.0009541	1.4
x2 = 0.005626, x1 = 0.001008	1.43

CCC[N+]1(C)CCCC1.O=S(=O)([N-]S(=O)(=O)C(F)(F)F)C(F)(F)F + CCCCCC[N+]1(C)CCCC1.O=S(=O)([N-]S(=O)(=O)C(F)(F)F)C(F)(F)F
353.15 K, 101 kPa, x2 = 0
Details	electrical conductivity [S/m]	viscosity [mPa·s]
–	1.76	11.6

O + CCCCCC[n+]1ccc(C)cc1.[Br-]
100 kPa, frequency 0.003 MHz, x2 = 0
Details	electrical conductivity [S/m]
288.15 K	0.0001
308.15 K	0.00022

CCCC[n+]1ccn(C)c1.F[B-](F)(F)F + CCCCCC[n+]1ccn(C)c1.F[B-](F)(F)F
Details	viscosity [mPa·s]
305.15 K, 101 kPa, x1 = 1	75.1

CN(CCO)CCO + CCCCCC[n+]1ccn(C)c1.F[B-](F)(F)F
101 kPa, x1 = 1
Details	viscosity [mPa·s]
303.15 K	57.5
308.15 K	44.2
313.15 K	35

CC[P+](CC)(CC)COCCOC.c1c[n-]nn1 + CCCCCC[n+]1ccn(C)c1.O=S(=O)([N-]S(=O)(=O)C(F)(F)F)C(F)(F)F
100 kPa
Details	viscosity [mPa·s]
278.15 K, x2 = 0.75	235
288.15 K, x2 = 0.25	136
293.15 K, x2 = 0.25	103
298.15 K, x2 = 0.75	76
303.15 K, x2 = 0.5	60

CN(CCO)CCO + CCCCCC[n+]1ccn(C)c1.O=S(=O)([N-]S(=O)(=O)C(F)(F)F)C(F)(F)F
101 kPa, x1 = 1
Details	viscosity [mPa·s]
303.15 K	59.8
313.15 K	37.9
318.15 K	29.8

CC[n+]1ccn(C)c1.N#C[N-]C#N + CCCCO
100 kPa
Details	viscosity [mPa·s]
298.15 K, x1 = 0.3006	3.16
303.15 K, x1 = 0.9012	8.7
308.15 K, x1 = 0.3006	2.29
308.15 K, x1 = 0.4008	2.52
308.15 K, x1 = 0.7012	4.34
308.15 K, x1 = 0.8016	5.5
313.15 K, x1 = 0.2007	1.97
313.15 K, x1 = 0.3006	2.03
318.15 K, x1 = 0.6014	2.39
323.15 K, x1 = 0.2007	1.56
323.15 K, x1 = 0.4008	1.71

CCCCCCCCn1cc[n+](C)c1.O=S(=O)([N-]S(=O)(=O)C(F)(F)F)C(F)(F)F + CCCCOC(C)=O
298.15 K, 100 kPa
Details	electrical conductivity [S/m]	viscosity [mPa·s]
x2 = 0	0.131	90.3
x2 = 0.2414	0.194	–
x2 = 0.7054	–	6.46
x2 = 0.8427	0.361	–

CC1COC(=O)O1 (stereo not given) + CCCC[N+]1(C)CCCC1.O=S(=O)([N-]S(=O)(=O)C(F)(F)F)C(F)(F)F
101 kPa, x1 = 1
Details	electrical conductivity [S/m]	viscosity [mPa·s]
293.15 K	0.002	2.72
303.15 K	0.002	2.29
313.15 K	0.002	2

CCCC[N+]1(C)CCCC1.N#C[N-]C#N + CCCC[N+]1(C)CCCC1.O=S(=O)([N-]S(=O)(=O)C(F)(F)F)C(F)(F)F
101 kPa, frequency 0 MHz, x2 = 0.5
Details	electrical conductivity [S/m]
318 K	0.962
323 K	1.12

101 kPa, x2 = 0.5
Details	viscosity [mPa·s]
318 K	22.7
323 K	19.7

CCC[N+]1(C)CCCC1.O=S(=O)([N-]S(=O)(=O)C(F)(F)F)C(F)(F)F + CCCC[N+]1(C)CCCC1.O=S(=O)([N-]S(=O)(=O)C(F)(F)F)C(F)(F)F
101 kPa
Details	electrical conductivity [S/m]	viscosity [mPa·s]
293.15 K, x2 = 0.25	0.248	81.4
333.15 K, x2 = 0	1.18	18.8
333.15 K, x2 = 0.75	1.01	20.7
353.15 K, x2 = 0.5	1.5	12.2

CCCC[N+]1(C)CCCC1.N#C[N-]C#N + CCCC[N+]1(C)CCCC1.O=S(=O)([N-]S(=O)(=O)C(F)(F)F)C(F)(F)F + O=S(=O)([N-]S(=O)(=O)C(F)(F)F)C(F)(F)F.[Li+]
electrical conductivity [S/m], 101 kPa, frequency 0 MHz
Details	298 K	303 K	308 K	313 K	318 K	323 K
x2 = 0.475, x1 = 0.475	0.481	0.572	0.67	0.788	0.912	1.05
x2 = 0.5, x1 = 0.5	0.565	0.642	0.746	0.857	0.962	1.12

viscosity [mPa·s], 101 kPa
Details	298 K	303 K	308 K	313 K	318 K	323 K	328 K
x2 = 0.475, x1 = 0.475	60.7	51.9	42.6	35.9	31.2	27.6	24.2
x2 = 0.5, x1 = 0.5	51.3	–	32	26.7	22.7	19.7	17.06

CC[n+]1ccn(C)c1.N#C[N-]C#N + CCCC[N+](C)(CCCC)CCCC.N#C[N-]C#N
101 kPa, x1 = 1
Details	viscosity [mPa·s]
303.15 K	12.97
323.15 K	8.28
343.15 K	5.49
353.15 K	4.63

O=C1CCCCCN1 + CCCC[N+](CCCC)(CCCC)CCCC.[Cl-]
101 kPa, x1 = 0.5
Details	electrical conductivity [S/m]
313.15 K	0.2162
315.65 K	0.257
328.15 K	0.5612

O=C1CCCCCN1 + CCCC[N+](CCCC)(CCCC)CCCC.[Cl-] + O
electrical conductivity [S/m], 101 kPa
Details	x1 = 0.0018, x2 = 0.0018	x1 = 0.0197, x2 = 0.0197	x1 = 0.0481, x2 = 0.0481	x1 = 0.0862, x2 = 0.0862	x1 = 0.146, x2 = 0.146
293.15 K	–	0.798	–	–	0.593
295.65 K	–	0.788	–	–	0.6211
298.15 K	–	0.778	0.799	0.775	0.639
300.65 K	–	0.769	0.8	0.7743	0.6505
303.15 K	–	0.768	0.795	0.778	0.659
305.65 K	–	0.767	0.788	0.775	0.667
308.15 K	0.219	0.767	0.7825	0.7733	0.677
310.65 K	0.219	0.763	0.779	0.768	0.686
313.15 K	0.221	0.758	0.776	0.7623	0.6923
315.65 K	0.222	0.753	0.77	0.757	0.695
318.15 K	0.222	0.744	0.7621	0.7513	0.699
320.65 K	0.223	0.735	0.7545	0.7434	0.699
323.15 K	0.223	0.725	0.746	0.736	0.698
325.65 K	0.224	0.716	0.737	0.727	0.697
328.15 K	0.224	0.704	–	0.719	0.6938
330.65 K	0.224	0.693	–	0.7105	0.687
333.15 K	0.225	0.681	–	0.7023	0.6811
